For the experiment, the system named is human conjunctival tissue mast cells. The experiment is described as follows: Inhibition of anti-human IgE-induced histamine release from human conjunctival tissue mast cells (HCTMC). In kind it is cell-based. The procedure:
Methods detailing preparation of monodispersed HCTMC and mediator release studies with these cells have been described (U.S. Pat. No. 5,360,720 and Miller et al, Ocular Immunology and Inflammation, 4(1):39-49 (1996)). Briefly, human conjunctival tissue mast cells were isolated from post-mortem tissue donors obtained within 8 hours of death by various eye banks and transported in Dexsol® corneal preservation medium, or equivalent. Tissues were enzymatically digested by repeated exposure (30 min. at 37° C.) to collagenase and hyaluronidase (2× with 200 U each/gram tissue, then 2-4× with 2000 U each/gram tissue) in Tyrode's buffer containing 0.1% gelatin. (Tyrode's buffer (in mM): 137 NaCl, 2.7 KCl, 0.35 NaH2PO4, 1.8 CaCl2, 0.98 MgCl2, 11.9 NaHCO3, and 5.5 glucose). Each digestion mixture was filtered over Nitex® cloth (100 μm mesh, Tetko, Briarcliff Manor, N.Y.) and washed with an equal volume of buffer. Filtrates were centrifuged at 825×g (7 min). Pellets were resuspended in buffer then combined for enrichment over a […] Percoll® cushion. The enriched pellet was washed, resuspended in supplemented RPMI 1640 medium and incubated at 37° C. to equilibrate.
Cells were harvested from the culture plate and counted for viability (trypan blue exclusion) and mast cell number (toluidine blue O). Mast cells (5000/tube; 1 mL final volume) were challenged (37° C.) for 15 min with goat-anti-human IgE (10 μg/mL) following treatment (15 minutes; 37° C.) with test drug or Tyrode's buffer. Total and non-specific release controls were exposed to 0.1% Triton X-100 and goat IgG (10 μg/mL), respectively. The reaction was terminated by centrifugation (500×g, 4° C., 10 min). Supernatants were stored at −20° C. until analyzed for histamine content by RIA (Beckman Coulter, Chicago, Ill.).
All test drugs were made to solution immediately prior to use. Each was dissolved in DMSO at 10 mM or greater concentration and then diluted in Tyrode's buffer containing 0.1% gelatin over the concentration for evaluation.
Inhibition of histamine release was determined by direct comparison of with anti-IgE challenged mast cells using Dunnett's t-test (Dunnett, “A multiple comparison procedure for comparing treatments with a control”, J. Amer. Stat. Assoc. (1955), 50:1096-1121).

The mark [1] stands for this setting: Homo sapiens, Mast cell, bracketed value = mean of the two determinations, anti-IgE challenged human conjunctival mast cells, read-out: IC50(nM), inhibition of histamine release, value in square brackets.
[2] abbreviates: individual determinations, mast cells 5000/tube, 15 min drug treatment at 37° C., then 15 min challenge with goat-anti-human IgE (10 μg/mL), histamine by RIA, read-out: IC50(nM), inhibition of histamine release.

What is called IC50 is the point on the concentration scale where inhibition reaches its midpoint.

Where “and” joins values, the source holds several entries; their conditions need not be identical. Identical values can stand only once. Like-named read-outs stand apart in the source and are kept apart here.

For `C=CCC(=O)Nc1ccccc1SSc1ccccc1NC(=O)CC=C` [Compound 1], the IC50 is, setting by setting: under setting [1], 56 nM; under setting [2], 85 nM and 27 nM. As for `CC(=O)Nc1ccccc1SSc1ccccc1NC(C)=O` [Compound 2], the 50% inhibitory concentration (IC50) runs as follows: under setting [1], 481 nM; under setting [2], 656 nM and 306 nM. As to `C=C(C)C(=O)Nc1ccccc1SSc1ccccc1NC(=O)C(=C)C` [Compound 3], the IC50 by setting is: under setting [1], 491 nM; under setting [2], 690 nM and 292 nM. Regarding `CC(O)CC(=O)Nc1ccccc1SSc1ccccc1NC(=O)CC(C)O` (stereo not drawn) [Compound 4], the half-maximal inhibitory concentration (IC50) under setting [2] is 3180 nM and < 1000 nM. For the compound `CCOC(=O)Nc1ccccc1SSc1ccccc1NC(=O)OCC` [Compound 5], the half-inhibitory concentration (IC50) under setting [1] came to 1190 nM. For `CC(C)(C)C(=O)Nc1ccccc1SSc1ccccc1NC(=O)C(C)(C)C` [Compound 6], the half-inhibitory concentration (IC50) (Homo sapiens, Mast cell, 0.25 h, individual determinations, mast cells 5000/tube, 15 min drug treatment at 37° C., then 15 min challenge with goat-anti-human IgE (10 μg/mL), histamine by RIA, read-out: IC50(nM), inhibition of histamine release) came to 1700 nM.
